Consider 1 molecule from PMC6032384 (International Journal of Molecular Sciences, 2018).

The term IC50 denotes the point on the concentration scale where inhibition reaches its midpoint. The low end stands for higher potency, the high end for lower potency.

The structures appear in SMILES notation. Read-outs that look alike come from different tables or passages of the source.

Assay [1] has as its system MRC-5 (human lung fibroblast). In words: Alamar blue (AB) cytotoxicity assay, MRC-5 noncancerous cells. Type of assay: cell-based. Conditions: MRC5 non-cancer cells, 72 h. Background: The colour change of resazurin is a common sign of viable cells or microbes.
The test system of assay [2] is wild-type immortalized mouse embryonic fibroblasts (WT SV40 MEF). In words: Alamar blue (AB) cytotoxicity assay, WT SV40 MEF. The class given is cell-based. Conditions: 72 h.
Assay [3] relates to HL-60 cells. The assay is described as follows: Cell morphology (May-Grunwald-Giemsa staining) and light scattering by flow cytometry. The following applies: 24 and 48 h. The class given is cell-based, human.
Assay [4] relates to HL-60 cells. In words: Annexin V-FITC/PI apoptosis assay by flow cytometry. Type of assay: cell-based, human. On the procedure:
Additionally, annexin V, which is a Ca^2+-dependent protein with high affinity for phosphatidylserine, was conjugated to a fluorochrome to detect phosphatidylserine exposure using flow cytometry. Since phosphatidylserine exposure precedes the loss of membrane integrity, annexin V staining was used along with the dye PI to identify early and late apoptotic cells, as well as necrotic cells. Therefore, annexin V-FITC/PI double staining was applied to HL-60 cells that were treated with the [Ru(PPh3)2(Thy)(bipy)]PF6 complex after 24 and 48 h of incubation, and the numbers of viable, early apoptotic, late apoptotic, and necrotic cells were quantified by flow cytometry (Figure 5).
Figure 5 Evaluation of the apoptosis induced by the [Ru(PPh3)2(Thy)(bipy)]PF6 complex (CRT) in HL-60 cells determined by flow cytometry using annexin V-FITC/PI staining after 24 and 48 h of incubation. (A) Representative flow cytometry dot plots. (B) Apoptotic cell quantification (annexin V-FITC positive cells). […] Data are presented as the mean ± S.E.M. of at the least three independent experiments. * p < 0.05 as compared with the negative control by ANOVA, followed by the Student Newman-Keuls test. […] Its quadrant percentages are just as hard to read: 24 h about Q1 0.640%, Q2 5.23%, Q4 85.6%, Q3 8.47%; 48 h about Q1 0.430%, Q2 3.07%, Q4 91.0%, Q3 5.52%.
(§1) Light scattering features were determined by flow cytometry. The internucleosomal DNA fragmentation and cell cycle distribution were determined according to Nicoletti et al.. For apoptosis measurements, a FITC Annexin V Apoptosis Detection Kit I (BD Biosciences, San Jose, CA, USA) was used, and the analysis was performed, according to the manufacturer’s instructions. A protection assay using the pan-caspase inhibitor Z-VAD(OMe)-FMK (Cayman Chemical, Ann Arbor, MI, USA) was also evaluated. The mitochondrial transmembrane potential was determined by the retention of the dye rhodamine 123 [28]. The levels of ROS were measured, as previously described, using 2′,7′-dichlorofluorescin diacetate (DCF-DA, Sigma-Aldrich Co.). At least 1 × 10^4 events were recorded per sample using a BD LSRFortessa cytometer along with BD FACSDiva Software (BD Biosciences) and Flowjo Software 10 (Flowjo LCC, Ashland, OR, USA). The cellular debris was omitted from the analysis.
For orientation: Flow cytometry measures light scatter and fluorescence of single cells or particles in a stream.

Assay [5] has as its system HL-60 cells. The assay is described as follows: Protection assay with pan-caspase inhibitor Z-VAD(OMe)-FMK (annexin V-FITC/PI). Type of assay: cell-based, human. Conditions: 50 µM Z-VAD(OMe)-FMK 2 h, then 4 μM CRT 48 h.
Source text: Loss of the mitochondrial transmembrane potential is a critical step in intrinsic apoptosis, and activation of caspase-3 (an executioner caspase) favors DNA fragmentation.
Figure 7 Prevention of the apoptosis induced by the [Ru(PPh3)2(Thy)(bipy)]PF6 complex (CRT) in HL-60 cells by a pan-caspase inhibitor (Z-VAD(OMe)-FMK), as assessed by flow cytometry using annexin V-FITC/PI staining. (A) Representative flow cytometry dot plots. (B) Apoptotic cell quantification (annexin V-FITC positive cells). The cells were pretreated for 2 h with 50 µM Z-VAD(OMe)-FMK and then incubated with 4 μM CRT for 48 h. […]
as §1, with “For apoptosis measurements, a FITC Annexin V Apoptosis Detection Kit I (BD Biosciences, San Jose, CA, USA) was used, and the analysis was performed, according to the manufacturer’s instructions.” left out, “The cellular debris was omitted from the analysis.” left out

The test system of a further assay is caspase-3 in HL-60 cells. The assay is described as follows: Caspase-3 colorimetric assay. Type of assay: cell-based, human. The following applies: 48 h. The method, then: (§2) Figure 6 Caspase-3 activity (A), assessed by a colorimetric assay after 48 h of incubation, and mitochondrial membrane potential (B), evaluated by flow cytometry using rhodamine 123 staining after 24 h of incubation, of HL-60 cells treatment with the [Ru(PPh3)2(Thy)(bipy)]PF6 complex (CRT). […] Data are presented as the mean ± S.E.M. of at the least three independent experiments. * p < 0.05 as compared with the negative control by ANOVA, followed by the Student Newman-Keuls test.
The cell lines that were used in this study were obtained from the American Type Culture Collection (ATCC) and were cultured, as described previously. Primary PBMCs were obtained with informed consent (# 031019/2013). All the cells were free of contamination, and the cell viability was determined by the TBE or AB assay, which were performed following the procedure that was described previously. The cell morphology analysis was performed using cytospin and May-Grunwald-Giemsa staining as described previously. To investigate caspase-3 activation, a caspase-3 colorimetric assay kit (Sigma-Aldrich Co.) was used.

The subject of assay [6] is HL-60 cells. In words: Mitochondrial transmembrane potential (rhodamine 123, flow cytometry). Type of assay: cell-based, human. The following applies: rhodamine 123, 24 h. On the procedure: as §2
as §1, with “The cellular debris was omitted from the analysis.” left out

The test system of the next assay is tested cancer cell lines. In words: Alamar blue cytotoxicity, summary over the tested cancer cell lines. The following applies: AB assay, 72 h, most of the tested cancer cell lines. The class given is cell-based.
Assay [7] concerns HL-60 cells. The following applies: TBE.

As for `Cc1c[nH]c(=O)[n-]c1=O.F[P-](F)(F)(F)(F)F.[Ru+2].c1ccc(-c2ccccn2)nc1.c1ccc(P(c2ccccc2)c2ccccc2)cc1.c1ccc(P(c2ccccc2)c2ccccc2)cc1` [CRT, [Ru(PPh3)2(Thy)(bipy)]PF6], the IC50 in [1] was 11500 nM; in assay [2], 2200 nM; in the assay on tested cancer cell lines, below 3000 nM. The Cell morphology result in the assay with HL-60 cells [3] (May-Grunwald-Giemsa-stained cells) is “cell morphology changes that were associated with apoptosis”. Moreover, in the assay with HL-60 cells [3] (flow cytometry), the “Forward light scatter (FSC), cell shrinkage” value is “decrease”. In the assay on HL-60 cells [3] (flow cytometry), the “Side scatter (SCC), nuclear condensation” value was “increase”. Further, in the assay on HL-60 cells [4] (NAC pretreatment, data not shown), the “Effect of pretreatment with antioxidant N-acetyl-L-cysteine (NAC) on the increase in apoptotic cells” value was “did not prevent”. For the same molecule, in the assay with HL-60 cells [4] (annexin V-FITC/PI, 24 and 48 h), the “Percentage of apoptotic cells (early apoptotic cells + late apoptotic cells)” value is recorded as “significant increase”. The “Percentage of necrotic cells” value in the assay with HL-60 cells [4] (annexin V-FITC/PI, 24 and 48 h) was “No significant increase”. Also, the “Effect of pan-caspase inhibitor Z-VAD(OMe)-FMK on the complex-induced increase in apoptotic cells” value in the assay with HL-60 cells [5] is on record as “partially prevented”. For the same molecule, the Caspase-3 activity entry with caspase-3 in HL-60 cells was “induced activation of caspase-3”. Moreover, the Mitochondrial transmembrane potential result in the assay with HL-60 cells [6] is given as “caused the loss of the mitochondrial transmembrane potential”. Besides, the “Reduction of the number of viable cells” value is reported as 32.5% in the assay with HL-60 cells [7] (1 μM, 24 h); 62.6% in the assay on HL-60 cells [7] (1 μM, 48 h); 49.1% in the assay on HL-60 cells [7] (2 μM, 24 h); 66.6% in the assay on HL-60 cells [7] (2 μM, 48 h); 59.1% in the assay with HL-60 cells [7] (4 μM, 24 h); 73.4% in the assay on HL-60 cells [7] (4 μM, 48 h). The “Number of nonviable cells” value in the assay on HL-60 cells [7] (1, 2 and 4 μM, 24 and 48 h) is given as “No significant increase”.
